This note sets out measurements from US10456553B2, “Device and methods for targeted tissue drug delivery” (NATIVE CARDIO, INC., priority 2012, dated 2019).

One data set concerns atria. The data set is described as follows: Atrial electrophysiology (right atrial ERP) and atrial fibrillation induction after pericardial or intravenous procainamide. It is filed as in vivo. The settings on record: swine. The method, then: (§1) Studies were conducted to determine the differences between intrapericardial (IPC) drug delivery versus intravenous (IV) drug delivery of the antiarrhythmic drug procainamide. In one study, using two groups of swine, investigators administered procainamide intravenously (n=6) or […] (n=7) using sequential intravenous doses of 2, 8, 16 mg/kg (cumulative was 2, 10, 26 mg/kg) or sequential pericardial doses of 0.5, 1, and 2 mg/kg (cumulative was 0.5, 1.5, 3.5 mg/kg). Each dose was re-suspended in 10 ml and administered at a rate of 1 mL/min. The pharmacokinetics of the two drug delivery methods was statistically significant. Pericardial delivery produced peak drug concentrations within the range of 250 to 900 ug/ml while the measurable level for plasma concentration was low (<1 ug/mL). […] It should be noted that the pericardial fluid concentration during intravenous delivery was 100 times less than that of intrapericardial delivery. The atrial electrophysiologic values were similar between both sets of delivery methods, indicating a lower direct dose can achieve similar therapeutic responses. The 3.5 mg/kg cumulative pericardial dose increased right atrial ERP by 22% from the baseline, while the 10 and 26 mg/kg cumulative intravenous doses prolonged atrial ERP by 24% and 18%, respectively. In addition, the cumulative doses of 3.5 mg/kg (pericardial) and 26 mg/kg (intravenous) prevented atrial fibrillation induction in 71% and 83% of the animals, respectively.

On the set-up of data set [1]: species or system swine. Conditions: in vivo. As to the method: as §1, with “In addition, the cumulative doses of 3.5 mg/kg (pericardial) and 26 mg/kg (intravenous) prevented atrial fibrillation induction in 71% and 83% of the animals, respectively.” left out
For data set [2], the system named is ventricular electrophysiology. The data set is described as follows: Ventricular electrophysiology, heart rate and systemic blood pressure after pericardial or intravenous procainamide. In kind it is in vivo. Conditions: swine. The method, then: as §1

In the case of `CCN(CC)CCNC(=O)c1ccc(N)cc1` [procainamide], the “animals in which atrial fibrillation induction was prevented” value in the data set with atria (3.5 mg/kg cumulative dose, pericardial) amounted to 71%; in the data set with atria (26 mg/kg cumulative dose, intravenous), 83%. The “increase of right atrial ERP from the baseline” value in the data set with atria (3.5 mg/kg cumulative pericardial dose) is on record as 22%. Besides, the “prolongation of atrial ERP” value in the data set on atria (10 mg/kg cumulative intravenous dose) was found to be 24%; in the data set on atria (26 mg/kg cumulative intravenous dose), 18%. The “concentrations within the pericardial fluid” value in data set [1] (iv) was “equal to that of the plasma concentration”. Further, in data set [1] (swine), the “pericardial fluid concentration during intravenous delivery relative to intrapericardial delivery” value came out at 100 times less. Besides, in data set [2] (26 mg/kg intravenous dose), the “atrial ventricular conduction times” value is reported as “prolonged”. Further, in data set [2] (26 mg/kg intravenous dose), the “interventricular conduction (RV and LV activation)” value is reported as “reduced”. The “effects on ventricular electrophysiology, heart rate, or systemic blood pressure” value in data set [2] (pericardial delivery) was “no significant effects”.
